Experimental data from patent US9150560B2, “Inhibitors of histone deacetylase” (Janssen Pharmaceutica, N.V., priority 2002, dated 2015).
Like-named read-outs stand apart in the source and are kept apart here.

Assays:
[1] = target: histone deacetylase (HDAC), HeLa nuclear extracts; assay: In vitro assay for inhibition of histone deacetylase; format: biochemical; design: key: pIC50 = negative log of IC50; details: [3H]acetylated histone H4 peptide substrate, 30 min
Method: The in vitro assay for inhibition of histone deacetylase (see example C.1) measures the inhibition of HDAC enzymatic activity obtained with the compounds of formula (I).
HeLa nuclear extracts (supplier: Biomol) were incubated at 60 μg/ml with 2×10^−8 M of radiolabeled peptide substrate. As a substrate for measuring HDAC activity a synthetic peptide, i.e. the amino acids 14-21 of histone H4, was used. The substrate is biotinylated at the NH2-terminal part with a 6-aminohexanoic acid spacer, and is protected at the COOH-terminal part by an amide group and specifically [^3H]acetylated at lysine 16. The substrate, biotin-(6-aminohexanoic)Gly-Ala-([^3H]-acetyl-Lys-Arg-His-Arg-Lys-Val-NH2), was added in a buffer containing 25 mM Hepes, 1 M sucrose, 0.1 mg/ml BSA and 0.01% Triton X-100 at pH 7.4. After 30 min the deacetylation reaction was terminated by the addition of HCl and acetic acid. (final concentration 0.035 mM and 3.8 mM respectively). After stopping the reaction, the free ^3H-acetate was extracted with ethylacetate. After mixing and centrifugation, the radioactivity in an aliquot of the upper (organic) phase was counted in a β-counter.
For each experiment, controls (containing HeLa nuclear extract and DMSO without compound), a blank incubation (containing DMSO but no HeLa nuclear extract or compound) and samples (containing compound dissolved in DMSO and HeLa nuclear extract) were run in parallel. In first instance, compounds were tested at a concentration of 10^−5M. […] In each test the blank value was substracted from both the control and the sample values. The control sample represented 100% of substrate deactylation. For each sample the radioactivity was expressed as a percentage of the mean value of the controls. […] Herein the effects of test compounds are expressed as pIC50 (the negative log value of the IC50-value).

[2] = tested on: A2780 ovarian carcinoma cells; assay: Determination of antiproliferative activity on A2780 cells (MTT); format: cell-based, human; details: four days of incubation; for IC50: Homo sapiens, 96 h, read-out: Cellular activity pIC50 (converted)
Method: Cellular activity of the compounds of formula (I) was determined on A2780 tumour cells using a colorimetric assay for cell toxicity or survival (Mosmann Tim, Journal of Immunological Methods 65: 55-63, 1983)(see example C.2).
All compounds tested were dissolved in DMSO and further dilutions were made in culture medium. Final DMSO concentrations never exceeded 0.1% (v/v) in cell proliferation assays. Controls contained A2780 cells and DMSO without compound and blanks contained DMSO but no cells. MTT was dissolved at 5 mg/ml in PBS. A glycine buffer comprised of 0.1 M glycine and 0.1 M NaCl buffered to pH 10.5 with NaOH (1 N) was prepared (all reagents were from Merck).
The human A2780 ovarian carcinoma cells (a kind gift from Dr. T. C. Hamilton [Fox Chase Cancer Centre, Pennsylvania, USA]) were cultured in RPMI 1640 medium supplemented with 2 mM L-glutamine, 50 μg/ml gentamicin and 10% fetal calf serum. Cells were routinely kept as monolayer cultures at 37° C. in a humidified 5% CO2 atmosphere. Cells were passaged once a week using a trypsin/EDTA solution at a split ratio of 1:40. All media and supplements were obtained from Life Technologies. Cells were free of mycoplasma contamination as determined using the Gen-Probe Mycoplasma Tissue Culture kit (supplier: BioMérieux).
Cells were seeded in NUNC™ 96-well culture plates (Supplier: Life Technologies) and allowed to adhere to the plastic overnight. Densities used for plating were 1500 cells per well in a total volume of 200 μl medium. After cell adhesion to the plates, medium was changed and drugs and/or solvents were added to a final volume of 200 μl. Following four days of incubation, medium was replaced by 200 μl fresh medium and cell density and viability was assessed using an MTT-based assay. To each well, 25 μl MTT solution was added and the cells were further incubated for 2 hours at 37° C. The medium was then carefully aspirated and the blue MTT-formazan product was solubilized by addition of 25 μl glycine buffer followed by 100 μl of DMSO. […] Within an experiment, the results for each experimental condition are the mean of 3 replicate wells. For initial screening purposes, compounds were tested at a single fixed concentration of 10^−6M. For active compounds, the experiments were repeated to establish full concentration-response curves. For each experiment, controls (containing no drug) and a blank incubation (containing no cells or drugs) were run in parallel. The blank value was subtracted from all control and sample values. For each sample, the mean value for cell growth (in absorbance units) was expressed as a percentage of the mean value for cell growth of the control. […] Herein the effects of test compounds are expressed as pIC50 (the negative log value of the IC50-value).

[3] = Kinetic solubility in aqueous media (nephelometry); format: physicochemical; details: phosphate citrate buffer pH 7.4, turbidity of three dilution steps
Method: Kinetic solubility in aqueous media measures the ability of a compound to stay in aqueous solution upon dilution (see example C.3).
DMSO-stock solutions are diluted with a single aqueous buffer solvent in 3 consecutive steps. For every dilution turbidity is measured with a nephelometer.
In the first dilution step, 10 μl of a concentrated stock-solution of the active compound, solubilized in DMSO (5 mM), was added to 100 μl phosphate citrate buffer pH 7.4 and mixed. In the second dilution step, an aliquot (20 μl) of the first dilution step was further dispensed in 100 μl phosphate citrate buffer pH 7.4 and mixed. Finally, in the third dilution step, a sample (20 μl) of the second dilution step was further diluted in 100 μl phosphate citrate buffer pH 7.4 and mixed. All dilutions were performed in 96-well plates. Immediately after the last dilution step the turbidity of the three consecutive dilution steps were measured with a nephelometer. Dilution was done in triplicate for each compound to exclude occasional errors. Based on the turbidity measurements a ranking is performed into 3 classes. Compounds with high solubility obtained a score of 3 and for this compounds the first dilution is clear. Compounds with medium solubility obtained a score of 2. For these compounds the first dilution is unclear and the second dilution is clear. […] The solubility of 9 compounds was measured.

[4] = not given; remark: listed apart in the source

Row | SMILES | Enzyme activity pIC50 [1] | IC50 [2] [nM] | melting point [°C] | Cellular activity pIC50 [2] | % metabolism ([4]; human, 15 min, 5 μM) [%] | Solubility Score [3] | % metabolism ([4]; 15 min incubation, compound 5 μM, microsomes 1 mg/ml, NADPH-generating system) [%]
1 | O=C(NO)c1cnc(N2CCN(C(=O)c3ccc4ccccc4c3)CC2)nc1 [Co. No. 6] | 7.104 | 1490 | 130 | – | – | 3 (Compounds with high solubility obtained a score of 3 and for this compounds the first dilution is clear) | –
2 | CN(C)S(=O)(=O)NCC1CCN(c2ncc(C(=O)NO)cn2)CC1 [Co. No. 4] | 7.27 | 2960 | 182 | – | – | 3 (Compounds with high solubility obtained a score of 3 and for this compounds the first dilution is clear) | –
3 | NS(=O)(=O)N1CCN(c2ncc(C(=O)NO)cn2)CC1 [Co. No. 3] | 6.881 | > 10000 | 212 | – | – | 3 (Compounds with high solubility obtained a score of 3 and for this compounds the first dilution is clear) | –
4 | O=C(CS)Nc1ccc(N2CCC3(CC2)C(=O)NCN3c2ccccc2)cc1 [Co. No. 1] | <5 | > 10000 | – | – | – | 1 (Compounds with low solubility obtained a score of 1 and for these compounds both the first and the second dilution are unclear) | –
5 | O=C(NO)c1cnc(N2CCN(C(=O)C(c3ccccc3)c3ccccc3)CC2)nc1 [Co. No. 5] | 7.096 | 659 | – | – | – | – | –
6 | COc1cc(N)c(Cl)cc1C(=O)NC1CCN(CCCOc2ccc(F)cc2)CC1OC (stereo not shown) [Cisapride] | – | – | – | – | 45 | – | –
7 | CCCO [propanol] | – | – | – | – | – | – | 25

Further lines, with some results ahead:

Row | Enzyme activity pIC50 [1] | IC50 [2] [nM] | melting point [°C] | Cellular activity pIC50 [2] | % metabolism ([4]; human, 15 min, 5 μM) [%] | SMILES | Solubility Score [3] | % metabolism ([4]; 15 min incubation, compound 5 μM, microsomes 1 mg/ml, NADPH-generating system) [%]
8 | 6.173 | – | – | 6.166 | – | CCCCCCCCS(=O)(=O)N1CCN(c2ccc(C(=O)NO)cc2)CC1 [compound 18] | 1 (Compounds with low solubility obtained a score of 1 and for these compounds both the first and the second dilution are unclear) | –
9 | 6.615 | 2920 | > 260 | – | – | CN(C)S(=O)(=O)N1CCN(c2ncc(C(=O)NO)cn2)CC1 [Co. No. 2] | 3 (Compounds with high solubility obtained a score of 3 and for this compounds the first dilution is clear) | –
10 | 7.073 | – | – | 6.084 | – | O=C(NO)c1cnc(N2CCN(C(=O)c3cccc4ccccc34)CC2)nc1 [compound 24] | – | –
